For this assay, the system named is 4T1Luc2000 mouse mammary carcinoma cells. Kind of assay: Osteolytic activity in the 4T1Luc2000 assay (intra-tibial injection of tumor cells). The format is in vivo, Athymic Balb\c nude, female mice. Particulars: 50 mg/kg p.o. twice daily, in combination with Zoledronic Acid 100 ug/kg s.c. twice weekly; compared with Zoledronic Acid single treatment. As to the method:
Intra-Tibial Injection of 4T1Luc2000 Mouse Mammary Carcinoma Cells:
Athymic Balb\c nude, female mice (Spezialzuchten, Stein, Switzerland) are anaesthetized by i.p. administration of […] ketarom: a mixture of 100 mg/kg Ketalar® 50 (Parker-Davis, Zurich, Switzerland) and 10 mg/kg xylazine (Rompun®, Bayer, Lyssach, Switzerland). Using a 30 gauze needle a cell suspension of […] in […] of HBSS (Invitrogen, Basel Switzerland) is injected through the articular cartilage and epiphysis into the tibia. In total, 48 animals in 6 groups, 8 animals each, are used in this study. […]
Peripheral Quantitative Computed Tomography (pQCT), End-Point Determination:
Total, cortical, and cancellous bone mass and geometry are monitored using an XCT-Research SA+ (Stratec-Norland, Pforzheim, Germany) fitted with a 0.5 mm collimator. […] Slices located 2, 3, 4, and 5 mm distal from the intercondylar tubercle in the proximal tibia metaphysis are analysed. […]
3D structural parameters of cancellous bone are measured non-invasively by microCT as described. […] A region of 200 slices at a position of 1 mm below the growth plate (secondary spongiosa) corresponding to the site of injection of the 4T1luc2000 cells is measured at a nominal resolution of approximately 15 μm (FIG. 3). […]
All results from the bone studies are expressed as mean *standard error (SEM). […]

This note sets out measurements from patent US20060281714A1, “Combinations of a cathepsin k inhibitor and a bisphosphonate in the treatment of bone metastasis, tumor growth and tumor-induced bone loss” (priority 2003, published 2006).

SMILES strings stand for the structures.

Take `CCCN1CCC(c2ccc(C(=O)NC3(C(=O)NCC#N)CCCCC3)cc2)CC1` [N-[1-(Cyanomethyl-carbamoyl)-cyclohexyl]-4-(1-propyl-piperidin-4-yl)-benzamide]: the anti-osteolytic activity result was “additive anti-osteolytic activity which is superior to Zoledronic Acid single treatment”.
